# According to patent US9102591B2, “Benzamides” (H. Lundbeck A/S, priority 2012, dated 2015):
# Target: P2X7 receptor (Homo sapiens (Human), UniProt Q99572)
# Test: P2X7 FLIPR assay (BzATP-stimulated calcium fluorescence, antagonist IC50)
# Assay type: cell-based
# Outline: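 Cells expressing P2X7 receptor (human, rat or mouse), plated 24 hours earlier in low-serum medium, loaded with Fluo-4 NW dye (30 min 37° C, 30 min room temperature).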
# P2X7 receptor, sequence (Q99572 whole entry): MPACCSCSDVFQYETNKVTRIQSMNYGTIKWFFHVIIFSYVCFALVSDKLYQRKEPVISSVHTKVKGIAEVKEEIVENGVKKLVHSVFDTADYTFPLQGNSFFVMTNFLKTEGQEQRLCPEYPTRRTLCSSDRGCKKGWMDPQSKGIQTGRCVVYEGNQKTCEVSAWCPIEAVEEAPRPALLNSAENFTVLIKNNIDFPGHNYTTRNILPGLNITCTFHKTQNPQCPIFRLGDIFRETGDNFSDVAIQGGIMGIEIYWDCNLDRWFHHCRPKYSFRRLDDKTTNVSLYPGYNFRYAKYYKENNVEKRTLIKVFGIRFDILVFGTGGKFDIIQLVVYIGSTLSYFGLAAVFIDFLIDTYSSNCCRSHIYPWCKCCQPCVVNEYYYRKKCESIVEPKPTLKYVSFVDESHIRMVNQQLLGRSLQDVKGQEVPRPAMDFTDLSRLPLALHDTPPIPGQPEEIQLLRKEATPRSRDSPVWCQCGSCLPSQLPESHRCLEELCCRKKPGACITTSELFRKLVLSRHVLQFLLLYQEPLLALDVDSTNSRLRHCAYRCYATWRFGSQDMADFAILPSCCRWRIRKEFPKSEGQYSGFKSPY
row,IC50,SMILES
1,0.024 µM,"O=C(NCC(CC1CC1)c1ccc(C(F)F)nc1)c1cccc(Cl)c1Cl (single isomer, unassigned; (+)) [(+)2,3-dichloro-N-[3-cyclopropyl-2-[6-(difluoromethyl)-3-pyridyl]propyl]benzamide]"
2,0.017 µM,"O=C(NCC(CC1CC1)c1ccc(C(F)F)nc1)c1ccccc1Cl (single isomer, unassigned; (-)) [(−)2-chloro-N-[3-cyclopropyl-2-[6-(difluoromethyl)-3-pyridyl] [(−)2-chloro-N-[3-cyclopropyl-2-[6-(difluoromethyl)-3-pyridyl]propyl]benzamide]"
3,0.014 µM,"O=C(NCC1(c2ccc(F)nc2)CCC(F)(F)CC1)c1c(F)cccc1Cl [2-chloro-N-[[4,4-difluoro-1-(6-fluoro-3-pyridyl)cyclohexyl]methyl]-6-fluoro-benzamide]"
4,0.041 µM,"O=C(NCC(CC1CC1)c1cnc(C(F)(F)F)nc1)c1c(F)cccc1Cl (single isomer, unassigned; (+)) [(+)2-chloro-N-[3-cyclopropyl-2-[2-(trifluoromethyl)pyrimidin] [(+)2-chloro-N-[3-cyclopropyl-2-[2-(trifluoromethyl)pyrimidin-5-yl]propyl]-6-fluoro-benzamide]"
5,0.00055 µM,"O=C(NCC(CC1CC1)c1ccc(C(F)(F)F)nc1)c1cccc(Cl)c1Cl (centres unmarked) [2,3-dichloro-N-[3-cyclopropyl-2-[6-(trifluoromethyl)-3-pyrid] [2,3-dichloro-N-[3-cyclopropyl-2-[6-(trifluoromethyl)-3-pyridyl]propyl]benzamide]"
6,0.0012 µM,"O=C(NCC(c1ccc(F)cc1)c1cnc(C(F)(F)F)nc1)c1cccc(Cl)c1Cl (single isomer, unassigned; (-)) [(−)2,3-dichloro-N-[2-(4-fluorophenyl)-2-[2-(trifluoromethyl)] [(−)2,3-dichloro-N-[2-(4-fluorophenyl)-2-[2-(trifluoromethyl)pyrimidin-5-yl]ethyl]benzamide]"
7,0.0023 µM,"O=C(NCC(CC1CC1)c1ccc(C(F)(F)F)nc1)c1ccccc1Cl (single isomer, unassigned; (-)) [Example 4b, (−)-2-Chloro-N-[3-cyclopropyl-2-[6-(trifluoromethyl)-3-pyridyl]propyl]benzamide]"
8,0.0099 µM,"Cc1ncc(C(CNC(=O)c2c(Cl)cccc2Cl)CC2CC2)cn1 (single isomer, unassigned; (-)) [(−)2,6-dichloro-N-[3-cyclopropyl-2-(2-methylpyrimidin-5-yl)p] [(−)2,6-dichloro-N-[3-cyclopropyl-2-(2-methylpyrimidin-5-yl)propyl]benzamide]"
9,0.0031 µM,"O=C(NCC(c1ccc(F)cc1)c1ccc(C(F)(F)F)nc1)c1ccccc1Cl (single isomer, unassigned; (-)) [(−)2-chloro-N-[2-(4-fluorophenyl)-2-[6-(trifluoromethyl)-3-p] [(−)2-chloro-N-[2-(4-fluorophenyl)-2-[6-(trifluoromethyl)-3-pyridyl]ethyl]benzamide]"
10,0.29 µM,"O=C(NCC1(c2ccc(F)nc2)CCC(F)(F)CC1)c1cccc(F)c1F [N-((4,4-difluoro-1-(6-fluoropyridin-3-yl)cyclohexyl)methyl)-2,3-difluorobenzamide]"
11,0.31 µM,O=C(NCC(CC1CC1)c1ccc(C(F)(F)F)nc1)c1ccc(F)cc1Cl (centres unmarked) [2-chloro-N-(3-cyclopropyl-2-(6-(trifluoromethyl)pyridin-3-yl)propyl)-4-fluorobenzamide]
12,4.3 µM,O=C(NCC1(c2ccc(Cl)cc2)CCOCC1)c1cccc(C(F)(F)F)c1F [N-[4-(4-Chloro-phenyl)-tetrahydro-pyran-4-ylmethyl]-2-fluoro-3-trifluoromethyl-benzamide]
13,0.0062 µM,"Cc1ncc(C(CNC(=O)c2cccc(Cl)c2Cl)C2CCC(F)(F)CC2)cn1 (centres unmarked) [2,3-dichloro-N-[2-(4,4-difluorocyclohexyl)-2-(2-methylpyrimidin-5-yl)ethyl]benzamide]"
14,0.029 µM,Cc1ccc(C(CNC(=O)c2ccccc2C)CC(C)C)cn1 (centres unmarked) [2-Methyl-N-[4-methyl-2-(6-methyl-pyridin-3-yl)-pentyl]-benzamide]
